Columns and labels:
Assay type in all cases: in vivo
[1] = test system: ivy-leaved morning glory (Ipomoea hederacea); experiment: Test G Pre-Emergence Protocol; details: Ipomoea, pre-emergence, 312 h, evaluated after 13 days; for pest or weed control at 15.625 g/ha: 15.625 g ai/ha, read-out: Morning-glory, Ivy-leaved damage rating (100=total damage to plant; 0=no damage to plant); for pest or weed control at 62.5 g/ha: 62.5 g ai/ha, 100=total damage to plant, 0=no damage to plant, read-out: plant damage rating, Morningglory, Ivy-leaved; for pest or weed control at 250 g/ha: 250 g ai/ha, read-out: Morningglory, Ivy-leaved damage rating (100=total damage to plant; 0=no damage to plant)
How it was run: (§1)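 Pre-emergence spray, 15.625/62.5/250 g/ha, vehicle acetone:water 50:50 + 0.5% Tween 20, applied 1 d after sowing. Glasshouse 24/16° C, 14 h light, 65% RH, watered twice daily. Visual damage rating at 13 d, 0–100 scale.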

corn (Zea mays) [2] = experiment: Test G Pre-Emergence Protocol; details: Zea mays, pre-emergence, 312 h, evaluated after 13 days; for plant injury at 15.625 g/ha: 15.625 g ai/ha; for plant injury at 15.625 g/ha / plant injury at 250 g/ha: read-out: Corn damage rating (100=total damage to plant; 0=no damage to plant); for plant injury at 62.5 g/ha: 62.5 g ai/ha, 100=total damage to plant, 0=no damage to plant, read-out: plant damage rating, Corn; for plant injury at 250 g/ha: 250 g ai/ha
How it was run: as §1

[3] = test system: barnyardgrass (Echinochloa crus-galli); experiment: Test G Pre-Emergence Protocol; details: Echinochloa crus-galli, pre-emergence, 312 h, evaluated after 13 days; for pest or weed control at 15.625 g/ha: 15.625 g ai/ha, read-out: Barnyard grass damage rating (100=total damage to plant; 0=no damage to plant); for pest or weed control at 62.5 g/ha: 62.5 g ai/ha, 100=total damage to plant, 0=no damage to plant, read-out: plant damage rating, Barnyardgrass; for pest or weed control at 250 g/ha: 250 g ai/ha, read-out: Barnyardgrass damage rating (100=total damage to plant; 0=no damage to plant)
How it was run: as §1

[4] = test system: redroot pigweed (Amaranthus retroflexus); experiment: Test G Pre-Emergence Protocol; details: Amaranthus retroflexus, pre-emergence, 312 h, evaluated after 13 days; for pest or weed control at 15.625 g/ha: 15.625 g ai/ha; for pest or weed control at 15.625 g/ha / pest or weed control at 250 g/ha: read-out: Pigweed, Redroot damage rating (100=total damage to plant; 0=no damage to plant); for pest or weed control at 62.5 g/ha: 62.5 g ai/ha, 100=total damage to plant, 0=no damage to plant, read-out: plant damage rating, Pigweed, Redroot; for pest or weed control at 250 g/ha: 250 g ai/ha
How it was run: as §1

[5] = test system: giant foxtail (Setaria faberi); experiment: Test G Pre-Emergence Protocol; details: Setaria faberi, pre-emergence, 312 h, evaluated after 13 days; for pest or weed control at 15.625 g/ha: 15.625 g ai/ha; for pest or weed control at 15.625 g/ha / pest or weed control at 250 g/ha: read-out: Foxtail, Giant damage rating (100=total damage to plant; 0=no damage to plant); for pest or weed control at 62.5 g/ha: 62.5 g ai/ha, 100=total damage to plant, 0=no damage to plant, read-out: plant damage rating, Foxtail, Giant; for pest or weed control at 250 g/ha: 250 g ai/ha
How it was run: as §1

[6] = test system: velvetleaf (Abutilon theophrasti); experiment: Test G Pre-Emergence Protocol; details: Abutilon theophrasti, pre-emergence, 312 h, evaluated after 13 days; for pest or weed control at 15.625 g/ha: 15.625 g ai/ha; for pest or weed control at 15.625 g/ha / pest or weed control at 250 g/ha: read-out: Velvetleaf damage rating (100=total damage to plant; 0=no damage to plant); for pest or weed control at 62.5 g/ha: 62.5 g ai/ha, 100=total damage to plant, 0=no damage to plant, read-out: plant damage rating, Velvetleaf; for pest or weed control at 250 g/ha: 250 g ai/ha
How it was run: as §1

[7] = test system: ivy-leaved morning glory (Ipomoea hederacea); experiment: Test G Post-Emergence Protocol; details: Ipomoea, post-emergence, 312 h; for pest or weed control at 15.625 g/ha: 15.625 g ai/ha, evaluated after 13 days (100=total damage to plant; 0=no damage to plant), read-out: Morningglory, Ivy-leaved damage rating; for pest or weed control at 62.5 g/ha: 62.5 g ai/ha, read-out: Morningglory, Ivy-leaved damage rating (100=total damage to plant; 0=no damage to plant); for pest or weed control at 62.5 g/ha / pest or weed control at 250 g/ha: evaluated after 13 days; for pest or weed control at 250 g/ha: 250 g ai/ha, read-out: damage to plant, Morningglory, Ivy-leaved (100=total damage to plant; 0=no damage to plant)
How it was run: (§2)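 Foliar application was made 8 days after sowing, using an aqueous spray of the active in acetone/water (50:50) with 0.5% Tween 20, at doses of 15.625, 62.5 or 250 g/ha. Injury was assessed 13 days later, where 100 meant the plant was fully damaged.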

corn (Zea mays) [8] = experiment: Test G Post-Emergence Protocol; details: Zea mays, post-emergence, 312 h; for plant injury at 15.625 g/ha: 15.625 g ai/ha, evaluated after 13 days (100=total damage to plant; 0=no damage to plant), read-out: Corn damage rating; for plant injury at 62.5 g/ha: 62.5 g ai/ha, read-out: Corn damage rating (100=total damage to plant; 0=no damage to plant); for plant injury at 62.5 g/ha / plant injury at 250 g/ha: evaluated after 13 days; for plant injury at 250 g/ha: 250 g ai/ha, read-out: damage to plant, Corn (100=total damage to plant; 0=no damage to plant)
How it was run: as §2

[9] = test system: barnyardgrass (Echinochloa crus-galli); experiment: Test G Post-Emergence Protocol; details: Echinochloa crus-galli, post-emergence, 312 h; for pest or weed control at 15.625 g/ha: 15.625 g ai/ha, evaluated after 13 days (100=total damage to plant; 0=no damage to plant), read-out: Barnyardgrass damage rating; for pest or weed control at 62.5 g/ha: 62.5 g ai/ha, read-out: Barnyardgrass damage rating (100=total damage to plant; 0=no damage to plant); for pest or weed control at 62.5 g/ha / pest or weed control at 250 g/ha: evaluated after 13 days; for pest or weed control at 250 g/ha: 250 g ai/ha, read-out: damage to plant, Barnyardgrass (100=total damage to plant; 0=no damage to plant)
How it was run: as §2

[10] = test system: redroot pigweed (Amaranthus retroflexus); experiment: Test G Post-Emergence Protocol; details: Amaranthus retroflexus, post-emergence, 312 h; for pest or weed control at 15.625 g/ha: 15.625 g ai/ha, evaluated after 13 days (100=total damage to plant; 0=no damage to plant), read-out: Pigweed, Redroot damage rating; for pest or weed control at 62.5 g/ha: 62.5 g ai/ha, read-out: Pigweed, Redroot damage rating (100=total damage to plant; 0=no damage to plant); for pest or weed control at 62.5 g/ha / pest or weed control at 250 g/ha: evaluated after 13 days; for pest or weed control at 250 g/ha: 250 g ai/ha, read-out: damage to plant, Pigweed, Redroot (100=total damage to plant; 0=no damage to plant)
How it was run: as §2

[11] = test system: giant foxtail (Setaria faberi); experiment: Test G Post-Emergence Protocol; details: Setaria faberi, post-emergence, 312 h; for pest or weed control at 15.625 g/ha: 15.625 g ai/ha, evaluated after 13 days (100=total damage to plant; 0=no damage to plant), read-out: Foxtail, Giant damage rating; for pest or weed control at 62.5 g/ha: 62.5 g ai/ha, read-out: Foxtail, Giant damage rating (100=total damage to plant; 0=no damage to plant); for pest or weed control at 62.5 g/ha / pest or weed control at 250 g/ha: evaluated after 13 days; for pest or weed control at 250 g/ha: 250 g ai/ha, read-out: damage to plant, Foxtail, Giant (100=total damage to plant; 0=no damage to plant)
How it was run: as §2

[12] = test system: velvetleaf (Abutilon theophrasti); experiment: Test G Post-Emergence Protocol; details: Abutilon theophrasti, post-emergence, 312 h; for pest or weed control at 15.625 g/ha: 15.625 g ai/ha, evaluated after 13 days (100=total damage to plant; 0=no damage to plant), read-out: Velvetleaf damage rating; for pest or weed control at 62.5 g/ha: 62.5 g ai/ha, read-out: Velvetleaf damage rating (100=total damage to plant; 0=no damage to plant); for pest or weed control at 62.5 g/ha / pest or weed control at 250 g/ha: evaluated after 13 days; for pest or weed control at 250 g/ha: 250 g ai/ha, read-out: damage to plant, Velvetleaf (100=total damage to plant; 0=no damage to plant)
How it was run: as §2

Row | SMILES | pest or weed control at 15.625 g/ha [1] | pest or weed control at 62.5 g/ha [1] | pest or weed control at 250 g/ha [1] | plant injury at 15.625 g/ha (corn (Zea mays) [2]) | plant injury at 62.5 g/ha (corn (Zea mays) [2]) | plant injury at 250 g/ha (corn (Zea mays) [2]) | pest or weed control at 15.625 g/ha [3] | pest or weed control at 62.5 g/ha [3] | pest or weed control at 250 g/ha [3] | pest or weed control at 15.625 g/ha [4] | pest or weed control at 62.5 g/ha [4] | pest or weed control at 250 g/ha [4] | pest or weed control at 15.625 g/ha [5] | pest or weed control at 62.5 g/ha [5] | pest or weed control at 250 g/ha [5] | pest or weed control at 15.625 g/ha [6] | pest or weed control at 62.5 g/ha [6] | pest or weed control at 250 g/ha [6] | pest or weed control at 15.625 g/ha [7] | pest or weed control at 62.5 g/ha [7] | further results
1 | COc1c(Cl)cccc1NC(=O)[C@H]1C(=O)N(C)C[C@@H]1c1ccc(C(F)(F)F)cc1 (racemic) [Compound 1447] | 0% | 0% | 0% | 0% | 0% | 20% | 0% | 0% | 10% | 0% | 0% | 0% | 50% | 50% | 60% | 0% | 0% | 0% | 0% | 0% | pest or weed control at 250 g/ha [7]: 0%; plant injury at 15.625 g/ha (corn (Zea mays) [8]): 0%; plant injury at 62.5 g/ha (corn (Zea mays) [8]): 10%; plant injury at 250 g/ha (corn (Zea mays) [8]): 10%; pest or weed control at 15.625 g/ha [9]: 0%; pest or weed control at 62.5 g/ha [9]: 0%; pest or weed control at 250 g/ha [9]: 0%; pest or weed control at 15.625 g/ha [10]: 0%; pest or weed control at 62.5 g/ha [10]: 0%; pest or weed control at 250 g/ha [10]: 0%; pest or weed control at 15.625 g/ha [11]: 10%; pest or weed control at 62.5 g/ha [11]: 20%; pest or weed control at 250 g/ha [11]: 50%; pest or weed control at 15.625 g/ha [12]: 0%; pest or weed control at 62.5 g/ha [12]: 0%; pest or weed control at 250 g/ha [12]: 0%
2 | CN1C[C@@H](c2ccc(C(F)(F)F)cc2)[C@H](C(=O)Nc2cccc(F)c2)C1=O (racemic) [Compound 1623] | 10% | 10% | 10% | 10% | 0% | 10% | 10% | 30% | 60% | 10% | 10% | 50% | 20% | 60% | 80% | 10% | 0% | 50% | 30% | 30% | pest or weed control at 250 g/ha [7]: 60%; plant injury at 15.625 g/ha (corn (Zea mays) [8]): 0%; plant injury at 62.5 g/ha (corn (Zea mays) [8]): 0%; plant injury at 250 g/ha (corn (Zea mays) [8]): 30%; pest or weed control at 15.625 g/ha [9]: 10%; pest or weed control at 62.5 g/ha [9]: 70%; pest or weed control at 250 g/ha [9]: 80%; pest or weed control at 15.625 g/ha [10]: 10%; pest or weed control at 62.5 g/ha [10]: 20%; pest or weed control at 250 g/ha [10]: 60%; pest or weed control at 15.625 g/ha [11]: 30%; pest or weed control at 62.5 g/ha [11]: 70%; pest or weed control at 250 g/ha [11]: 80%; pest or weed control at 15.625 g/ha [12]: 0%; pest or weed control at 62.5 g/ha [12]: 0%; pest or weed control at 250 g/ha [12]: 20%
3 | CN1C[C@@H](c2ccc(C(F)(F)F)cc2)[C@H](C(=O)Nc2ccon2)C1=O (racemic) [Compound 1506] | 0% | 0% | 0% | 0% | 0% | 0% | 0% | 0% | 0% | 0% | 0% | 0% | 0% | 0% | 0% | 0% | 0% | 0% | 0% | 0% | pest or weed control at 250 g/ha [7]: 0%; plant injury at 15.625 g/ha (corn (Zea mays) [8]): 0%; plant injury at 62.5 g/ha (corn (Zea mays) [8]): 0%; plant injury at 250 g/ha (corn (Zea mays) [8]): 0%; pest or weed control at 15.625 g/ha [9]: 0%; pest or weed control at 62.5 g/ha [9]: 0%; pest or weed control at 250 g/ha [9]: 0%; pest or weed control at 15.625 g/ha [10]: 0%; pest or weed control at 62.5 g/ha [10]: 0%; pest or weed control at 250 g/ha [10]: 0%; pest or weed control at 15.625 g/ha [11]: 0%; pest or weed control at 62.5 g/ha [11]: 0%; pest or weed control at 250 g/ha [11]: 0%; pest or weed control at 15.625 g/ha [12]: 0%; pest or weed control at 62.5 g/ha [12]: 0%; pest or weed control at 250 g/ha [12]: 0%

— patent US12077503B2, “Substituted cyclic amides and their use as herbicides” (FMC CORPORATION, priority 2015, dated 2024)
